One assay concerns the target T1, Kinase A and Spo0F (Bacillus subtilis, UniProt P16497).
T1 construct: made in house; host or cells: E. coli (recombinant, overexpressing)
T1 sequence (P16497 1-606): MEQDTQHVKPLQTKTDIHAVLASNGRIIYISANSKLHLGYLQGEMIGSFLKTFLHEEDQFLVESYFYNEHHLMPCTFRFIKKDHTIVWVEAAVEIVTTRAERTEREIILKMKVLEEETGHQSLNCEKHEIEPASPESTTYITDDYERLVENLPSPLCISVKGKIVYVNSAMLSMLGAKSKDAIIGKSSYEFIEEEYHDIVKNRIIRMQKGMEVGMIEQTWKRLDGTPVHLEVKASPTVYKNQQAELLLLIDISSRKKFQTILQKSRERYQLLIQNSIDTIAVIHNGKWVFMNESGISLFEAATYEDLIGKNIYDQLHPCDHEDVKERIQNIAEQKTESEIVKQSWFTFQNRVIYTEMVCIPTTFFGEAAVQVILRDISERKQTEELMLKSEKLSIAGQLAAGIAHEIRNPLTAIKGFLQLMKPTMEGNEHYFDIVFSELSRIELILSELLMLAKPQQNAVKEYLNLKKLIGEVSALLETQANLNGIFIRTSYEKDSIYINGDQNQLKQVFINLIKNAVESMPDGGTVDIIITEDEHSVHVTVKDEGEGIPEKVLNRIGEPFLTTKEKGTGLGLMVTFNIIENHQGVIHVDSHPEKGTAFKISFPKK
Briefly: Autophosphorylation of Kinase A and transphosphorylation of Spo0F assay (HPK in vitro assay). The class given is biochemical. As to conditions: inhibitor concentrations from 1 to 500 μM, [32P]ATP, phosphoimager. The procedure:
1. Autophosphorylation of Kinase A and Transphosphorylation of Spo0F Assay
To study the effect of the compounds of the present invention on the signal transduction process in bacteria, the inhibiting effect of the compounds on the sporulation operon proteins Kinase A and Spo0F was examined. Specifically, the inhibition of autophosphorylation of Kinase A and the transphosphorylation of Spo0F was determined in the following assays. The Spo0F response regulator is the primary substrate for phosphorylation by the protein kinase, Kin A, involved in the sporulation process in bacteria. See D. Burbulys, K. A. Trach, J. A. Hoch, Cell, 64, 545-552 (1991). Spo0F and KinA were prepared from recombinant E. coli overexpressing the proteins (J. Cavanagh et al, Amino Acids, 6, 131-140 (1994) and references therein).
The following stock reagents were either prepared and used promptly or stored at the indicated temperature:
8 X Salts : 2M KCl (5 mL), 1M MgCl2 (800 mL), 1M CaCl2 (100 mL), 10 mg/mL phenylmethylsulfonyl fluoride (200 mL), 1 M dithioreitol (50 mL), 0.25M Na2 EDTA (32 mL) and H2 O mL (-20° C.)
5×Loading Dye: 0.5M TRIS-HCl-pH 6.8 (7.5 mL), 10% SDS (2 mL) 0.1% bromophenol blue (0.5 mL), 100% glycerol (3 mL) and 12.5 M 2-mercaptoethanol (0.3 mL)
1-1.3 mg/mL KinA:15 mM TRIS-HCl, pH 8.0, 6 mM KCl; 4 mM 2-mercaptoethanol; 40% glycerol (-20° C.)
1 mg/mL Spo0F: 17.5 mM TRIS-HCl, pH 8.0; 0.7 mM KCl; 0.7 mM MgCl2; 0.7 mM CaCl2; 5mM 2-mercaptoethanol; 30% Glycerol (-20° C.)
5% Stacking Gel: 40% 29:1 acrylamide:bis acrylamide (1.25 mL), 0.5M TRIS-HCl, pH 6.8 (2.5 mL), 10% SDS (0.1 mL), D-H2 O (6.15 mL) 10% ammonium persulfate (100 mL) and TEMED (25 mL) SDS Running Buffer: TRIS-BASE (3.02 g), glycine (14.4 g) SDS (1 g), D-H2 O (to 1L)
The reaction mixture was prepared from 8×Salts (87 μL), 1M TRIS, pH 8 (118 μL), 50% glycerol (63 μL), Spo0F (14.1 μL) and KinA (7.0 μL). Microcentrifuge tubes were charged with the reaction mixture (18.5 μL) and a 1.0 mM solution of the test compound in 5% DMSO (18.5 μL), and incubated for 15 min on ice. 100 mM ATP solution (3.0 μl, containing 625 μCi [^32 P]ATP) was added, and the mixture left for 10 minutes at room temperature. The reaction was quenched with 5×loading dye (10 μL per tube) and the samples were loaded on a prepared 5% Stacking Gel, or stored on dry ice until ready for use. The prepared wells were filled with SDS Running Buffer, samples were loaded into the wells, and 80 volts were applied to the gel until the dye front reached the bottom of the stacking gel. The voltage was then increased to 250 volts until electrophoresis was complete. Radioactive bands in the gel corresponding to phosphorylated KinA and Spo0F were imaged and quantitated with a phosphoimager.
If either enzyme was inhibited (as evidenced by the absence of labelled protein in the developed gel), an IC50 was calculated by running the assay with a range of inhibitor concentrations from 1 to 500 μM. After electrophoresis of the reaction mixtures, percent inhibition was determined by measuring the concentration of radioactive phosphorus with a phosphoimager and calculating the values using a software program (BioRad Molecular Analyst).

The next assay concerns selected microorganisms. In words: MIC antimicrobial assay (NCCLS microdilution broth method). The class given is cell-based. The procedure:
2. MIC Anitimicrobial Assay
The in vitro antimicrobial activity of the compounds was determined by the microdilution broth method following the test method from the National Committee for Laboratory Standards (NCCLS). This method is described in the NCCLS Document M7-A2, Vol.10, No.8 "Methods for Dilution Antimicrobial Susceptibility Test for Bacteria that Grow Aerobically--Second Edition."
In this method two-fold serial dilutions of drug in cation supplemented Mueller-Hinton broth are added to wells in microdilution trays. The test organisms are prepared by adjusting the turbidity of actively growing broth cultures so that the final concentration of test organism after it is added to the wells is approximately 5×10^4 CFUs/well).
Following inoculation of the microdilution trays, the trays are incubated at 35° C. for 16-20 hours and then read. […] The amount of growth in the wells containing the test compound is compared with the amount of growth in the growth-control wells (no test compound) used in each tray.
(Dilution methods test growth across graded concentrations, often in twofold steps.)

Converted amounts (≈) assume the structure as drawn.

By IC50 is commonly meant the concentration at which inhibition is half-maximal. Higher therefore signals a need for much substance. In general, MIC refers to the smallest concentration in the dilution series that meets the test's criterion for growth inhibition. The low end stands for inhibition by little substance, the high end for a need for much substance. For the compound `N=C(N)NCCc1ccc(NC(=O)CC(c2ccccc2)(c2ccccc2)c2ccccc2)cc1` [Example 18, N-[4-(2-Guanidinoethyl)phenyl]-3,3,3-triphenylpropionamide], the IC50 on Kinase A and Spo0F is 51 µM. This compound returned an MIC against selected microorganisms of 4 to 16 µg/mL (≈ 8.65 to 34.6 µM).

For `C[N+](C)(C)Cc1ccc(OCCC(c2ccccc2)(c2ccccc2)c2ccccc2)cc1.[Cl-]` [Example 33, N,N,N-Trimethyl-[4-(3,3,3-triphenylpropoxy)phenyl]methylammonium chloride], the IC50 at Kinase A and Spo0F stood at 29 µM. This compound also returned a minimal inhibitory concentration (MIC) against selected microorganisms of 4 to 8 µg/mL.

`C[N+](C)(Cc1ccccc1)Cc1ccc(OCCC(c2ccccc2)(c2ccccc2)c2ccccc2)cc1.[Cl-]` [Example 28, N-Benzyl-N,N-dimethyl-[4-(3,3,3-triphenylpropoxy)-phenyl]methyl ammonium chloride] showed an IC50 against Kinase A and Spo0F of 13 µM. The same compound had an MIC against selected microorganisms of 2 µg/mL.

With `O=C(O)c1c(O)cccc1OCCC(c1ccccc1)(c1ccccc1)c1ccccc1` [Example 42, 2-Hydroxy-6-(3,3,3-triphenylpropoxy)benzoic acid], the IC50 at Kinase A and Spo0F stood at 85 µM.

The compound `N=C(N)NCCc1ccc(OCCCC(c2ccccc2)(c2ccccc2)c2ccccc2)cc1` [Example 11] displayed a 50% inhibitory concentration (IC50) at Kinase A and Spo0F of 21 µM.

`NCCCc1ccc(SCCC(c2ccccc2)(c2ccccc2)c2ccccc2)cc1` [Example 40, 3-[4-(3,3,3-Triphenylpropylthio)phenyl]propylamine] showed an IC50 at Kinase A and Spo0F of 13 µM.

`O=C(O)/C=C/c1ccc(OCCC(c2ccccc2)(c2ccccc2)c2ccccc2)cc1` [Example 22, trans 4-(3,3,3-Triphenylpropoxy)cinnamic acid]: the IC50 against Kinase A and Spo0F was 71 µM. The compound further displayed a minimal inhibitory concentration (MIC) with selected microorganisms of 4 to 64 µg/mL (≈ 9.21 to 147 µM).

Consider `O=C(O)C(O)c1ccc(OCCC(c2ccccc2)(c2ccccc2)c2ccccc2)cc1` (stereo not shown) [Example 37, 2-[4-(3,3,3-Triphenylpropoxy)phenyl]glycolic acid], for which the 50% inhibitory concentration (IC50) on Kinase A and Spo0F came to 73 µM. In other words, the double-digit micromolar range.

At Kinase A and Spo0F, `COc1ccc(CCN)cc1OCCC(c1ccccc1)(c1ccccc1)c1ccccc1` [Example 8, 2-(4-methoxy-3-(3,3,3-triphenylpropoxy)-phenyl)ethylamine] showed an IC50 of 27 µM. Besides, the minimum inhibitory concentration (MIC) against selected microorganisms came out at 4 µg/mL (≈ 9.14 µM).

In turn, `c1ccc(C(CCOc2ccc(CCC3=NCCO3)cc2)(c2ccccc2)c2ccccc2)cc1` [Example 19, 4.5-Dihydro-2-{2-[4-(3,3,3-triphenylpropoxy)-phenyl]ethyl} oxazole] came in with a half-maximal inhibitory concentration (IC50) against Kinase A and Spo0F of 260 µM.

At Kinase A and Spo0F, `c1ccc(C(CCOc2ccc(CCC3=NCCCO3)cc2)(c2ccccc2)c2ccccc2)cc1` [Example 26, 4,5-Dihydro-2-{2-[4-(3,3,3-triphenylpropoxy)-phenyl}ethyl}-1,3-oxazine] came in with an IC50 of 43 µM. This compound yielded an MIC against selected microorganisms of 8 to 16 µg/mL (≈ 16.8 to 33.6 µM).

Turning to `C1=C(c2ccc(OCCC(c3ccccc3)(c3ccccc3)c3ccccc3)cc2)CCNC1` [Example 2, 4-[4-(3,3,3-Triphenylpropyloxy)phenyl]-1,2,3,6-tetrahydropiperidine], the concentration for half-maximal inhibition (IC50) against Kinase A and Spo0F worked out at 170 µM.

Regarding `O=C(O)Cc1ccccc1OCCC(c1ccccc1)(c1ccccc1)c1ccccc1` [Example 36, 2-(3,3,3-Triphenylpropoxy)phenylacetic acid], the half-inhibitory concentration (IC50) at Kinase A and Spo0F is 45 µM. The compound further displayed a minimum inhibitory concentration (MIC) against selected microorganisms of 16 to 32 µg/mL (≈ 37.9 to 75.7 µM).

In the case of `O=C(O)COc1cccc(OCCC(c2ccccc2)(c2ccccc2)c2ccccc2)c1` [Example 44, 3-(3,3,3-triphenylpropoxy)phenoxyacetic acid], the 50% inhibitory concentration (IC50) on Kinase A and Spo0F was determined as 71 µM.

`NCc1ccc(OCCC(c2ccccc2)(c2ccccc2)c2ccccc2)cc1` [Example 4, 4-(3,3,3-triphenylpropoxy)benzylamine] came in with an IC50 at Kinase A and Spo0F of 19 µM.

For the compound `O=C(O)Cc1ccc(OCCC(c2ccccc2)(c2ccccc2)c2ccccc2)cc1` [Example 13, 2-[4-(3,3,3-Triphenylpropoxy)phenyl]acetic acid], on Kinase A and Spo0F, the IC50 worked out at 50 µM. This compound also yielded an MIC against selected microorganisms of 8 to 16 µg/mL (≈ 18.9 to 37.9 µM).

For `O=C(O)COc1ccccc1OCCC(c1ccccc1)(c1ccccc1)c1ccccc1` [Example 45, 2-(3,3,3-triphenylpropoxy)phenoxyacetic acid], at Kinase A and Spo0F, the IC50 was found to be 20 µM.

As for `O=C(CC(c1ccccc1)(c1ccccc1)c1ccccc1)Nc1ccc(N2CCNCC2)cc1` [Example 1, 4-[4-(3,3,3-Triphenylpropanoylamino)phenyl]piperazine], the half-maximal inhibitory concentration (IC50) at Kinase A and Spo0F is 200 µM.

In turn, `O=C(O)/C=C/c1cccc(OCCC(c2ccccc2)(c2ccccc2)c2ccccc2)c1` [Example 43, trans 3-(3,3,3-Triphenylpropoxy)cinnamic acid] registered a concentration for half-maximal inhibition (IC50) against Kinase A and Spo0F of 40 µM. This IC50 lies about 5-fold lower than the previous one.

Take `c1ccc(C(CCOc2ccc(-c3nnn[nH]3)cc2)(c2ccccc2)c2ccccc2)cc1` [Example 39, 5-[4-(3,3,3-Triphenylpropoxy)phenyl]-1H-tetrazole]: the half-maximal inhibitory concentration (IC50) against Kinase A and Spo0F was determined as 110 µM.

At Kinase A and Spo0F, `O=C1NC(=O)C(c2ccc(OCCC(c3ccccc3)(c3ccccc3)c3ccccc3)cc2)S1` (stereo not shown) [Example 41, 5-[4-(3,3,3-Triphenylpropoxy)phenyl]thiazolidine-2,4-dione] returned an IC50 of 18 µM.

For `NCCc1cccc(OCCC(c2ccccc2)(c2ccccc2)c2ccccc2)c1` [Example 7, 2-(3-(3,3,3-triphenylpropoxy)phenyl)ethylamine], at Kinase A and Spo0F, the IC50 was found to be 80 µM. Against the preceding compound, the IC50 is about 4.4-fold higher.

Compound `NCCc1ccc(OCCC(c2ccc(Cl)cc2)(c2ccc(Cl)cc2)c2ccc(Cl)cc2)cc1` [Example 6] returned an IC50 on Kinase A and Spo0F of 150 µM.

Regarding `O=C(O)c1ccc(OCCC(c2ccccc2)(c2ccccc2)c2ccccc2)cc1` [Example 21, 4-(3,3,3-Triphenylpropoxy)benzoic acid], the IC50 against Kinase A and Spo0F is 290 µM.

`O=C(O)CCCOc1cccc(OCCC(c2ccccc2)(c2ccccc2)c2ccccc2)c1` [Example 46, 4-[3-(3,3,3-triphenylpropoxy)phenoxy]butyric acid] showed an IC50 on Kinase A and Spo0F of 16 µM.

Take `O=C(O)CCc1ccccc1OCCC(c1ccccc1)(c1ccccc1)c1ccccc1` [Example 38, 3-[2-(3,3,3-Triphenylpropoxy)phenyl]propionic acid]: the half-maximal inhibitory concentration (IC50) at Kinase A and Spo0F was determined as 27 µM.

(Values after patent US5874436A, “Triphenylalkyl antimicrobial agents” (priority 1997, dated 1999).)
